{
  "source": "paper PMC10094600",
  "about": "“Enzymatic Synthesis of 2-Chloropurine Arabinonucleosides with Chiral Amino Acid Amides at the C6 Position and an Evaluation of Antiproliferative Activity In Vitro” (International Journal of Molecular Sciences, 2023)",
  "data": [
    {"biological_target": "T1, E. coli adenosine deaminase (Escherichia coli, UniProt P22333)", "T1 construct": "gene add; recombinant", "T1 sequence (P22333 1-333)": "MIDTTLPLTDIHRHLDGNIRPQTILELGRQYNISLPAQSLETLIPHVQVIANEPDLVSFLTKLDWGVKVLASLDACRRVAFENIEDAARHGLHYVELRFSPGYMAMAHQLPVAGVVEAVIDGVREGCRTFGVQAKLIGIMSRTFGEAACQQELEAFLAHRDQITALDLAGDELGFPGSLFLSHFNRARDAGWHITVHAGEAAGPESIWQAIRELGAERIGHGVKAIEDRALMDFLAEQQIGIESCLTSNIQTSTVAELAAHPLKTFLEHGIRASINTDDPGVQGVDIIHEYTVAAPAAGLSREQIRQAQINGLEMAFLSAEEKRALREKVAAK", "assay": "inhibition of adenosine deamination, HPLC, Lineweaver-Burk", "format": "biochemical", "units": {"Ki": "µM"}, "values": [
      {"smiles": "NC(=O)[C@H](CO)Nc1nc(Cl)nc2c1ncn2[C@@H]1O[C@H](CO)[C@@H](O)[C@@H]1O", "note": "[4b, 9-β-D-Arabinofuranosyl-2-chloro-6-(N^α-L-serinylamido)-purine]", "Ki": "1200 ± 200"},
      {"smiles": "Nc1nc(Cl)nc2c1ncn2[C@@H]1O[C@H](CO)[C@@H](O)[C@H]1O", "note": "[compound 15, 2-chloradenosine]", "Ki": "78 ± 12"},
      {"smiles": "Nc1nc(Cl)nc2c1ncn2[C@@H]1O[C@H](CO)[C@@H](O)[C@@H]1O", "note": "[compound 16, 6-Amino-2-chloro-9-beta-D-arabinofuranosyl-9H-purine]", "Ki": "130 ± 20"}
    ]}
  ]
}
